From patent publication US11845752B2, “Substituted imidazo[1,5-a]pyrazines for the treatment of hepatitis B” (ALIGOS THERAPEUTICS, INC., priority 2020, dated 2023) come the findings set out here.

The subject of the assay is HBV. Briefly: HBV-DNA antiviral assay using HepG2.117 cells (intracellular HBV DNA by qPCR). The conditions noted are these: HBV DNA inhibition, 3 days incubation, read-out: EC50. The class given is cell-based, HBV genotype D. The protocol: The following assay procedure describes the HBV antiviral assay, using HepG2.117 cells, which carry a stably integrated genotype D HBV genome under the control of a Tet-off promoter, and intracellular HBV DNA quantification as endpoint. Cell viability is assessed in parallel by measuring the intracellular ATP content using ATPlite (Perkin Elmer).
On day 0, HepG2.117 cells (which are maintained in routine cell culture with doxycycline present in the medium at a final concentration of 1 μg/mL) were seeded in 96-well plates (white with clear bottom) at a density of 2.0×10^4 cells/well (0.1 mL/well) in medium without doxycycline to induce pgRNA transcription and subsequent formation of HBV particles. The cells were incubated at 37° C. and 5% CO2.
On day 1, medium was removed from each well, the test articles were diluted in culture medium without doxcycyline and 100 μL was added to cell culture wells (9 concentrations, 4-fold dilution). For each plate, 6 untreated (merely DMSO) wells were included. The final concentration of DMSO in the culture medium was 2%. Each plate was prepared in duplicate (one for HBV DNA extraction, one for ATPlite measurement). The cells were incubated at 37° C. and 5% CO2 for 3 days.
On day 4, cell viability was assessed using ATPlite and cell lysates were prepared for HBV DNA extraction and subsequent quantification by qPCR.
Medium was removed from each well and 100 μL of 0.33% NP-40 in H2O was added to each well. Plates were sealed, incubated at 4° C. for 5 mins, vortexed extensively and centrifuged briefly. Next, 35 μL of lysate was added to 65 μL QuickExtract DNA Extraction Solution (Epicentre) in a PCR plate for each well. PCR plate was incubated at 65° C. for 6 mins, 98° C. for 2 mins and finally cooled to 4° C. HBV DNA was then quantified by qPCR with HBV-specific primers and probes as specified in Table 1 using the Bio-Rad SSOAdvanced Universal Probes Supermix on a CFX96 machine (Bio-Rad). The PCR cycle program consisted of 95° C. for 3 mins, followed by 40 cycles at 95° C. for 10 sec and 60° C. for 30 sec.
A DNA standard was prepared by dilution of an IDT gBlock corresponding to the amplicon with concentrations ranging from 10^2 to 10^8 copies/input (i.e. per 4 μL) and used to generate a standard curve by plotting Cq values vs. HBV DNA standard concentration. The quantity of HBV DNA in each sample was determined by interpolating from the standard curve.
Cell viability was calculated as follows: % Cell viability=(luminescence value of test sample)/(average luminescence value of 2% DMSO control)×100%. HBV DNA inhibition was calculated as follows: 100−(HBV DNA copy number of test sample)/(average HBV DNA copy number of 2% DMSO control)×100%. No normalization to entecavir was required due to the excellent dynamic window of this assay. The CC50, EC50 and EC90 values were determined by dose-response curves fitted using non-linear regression.

Where [1] appears, read: Hepatitis B virus, HepG2.117, 72 h.

Read-outs that look alike come from different tables or passages of the source. Where only a bound is given, the exact number is not on record here.

Regarding `C[C@H]1Cn2c(c(C(=O)NCc3ccccc3-c3ncccn3)n(-c3ccc4nn(C[C@H](O)C(F)(F)F)cc4c3)c2=O)CN1C(=O)c1ccc(Br)c(C(F)(F)F)c1` (mixture of isomers) [Compound 107b, (6SR)-7-[4-bromo-3-(trifluoromethyl)benzoyl]-6-methyl-3-oxo-N-[(2-pyrimidin-2-ylphenyl)methyl]-2-[2-[(2S)-3,3,3-trifluoro-2-hydroxy-propyl]indazol-5-yl]-6,8-dihydro-5H-imidazo[1,5-a]pyrazine-1-carboxamide], the EC50 under setting [1] was 0.05 to 0.5 µM. As for `C[C@@H]1Cn2c(c(C(=O)NCc3ccccc3-c3ccn(CC(F)(F)F)n3)n(-c3ccc4c(cnn4C[C@@H](C)O)c3)c2=O)CN1C(=O)c1ccc(Br)c(C(F)(F)F)c1` (mixture of isomers) [Compound 111a, (6RS)-7-[4-bromo-3-(trifluoromethyl)benzoyl]-2-[1-[(2R)-2-hydroxypropyl]indazol-5-yl]-6-methyl-3-oxo-N-[[2-[1-(2,2,2-trifluoroethyl)pyrazol-3-yl]phenyl]methyl]-6,8-dihydro-5H-imidazo[1,5-a]pyrazine-1-carboxamide], the half-maximal effective concentration (EC50) under setting [1] was in the range of 0.05 to 0.5 µM. As to `C[C@@H](O)Cn1ncc2cc(-n3c(C(=O)NCc4ccccc4-c4ccn(CC(F)(F)F)n4)c4n(c3=O)C[C@H](C)N(C(=O)c3ccc(Br)c(C(F)(F)F)c3)C4)ccc21` (mixture of isomers) [Compound 111b, (6SR)-7-[4-bromo-3-(trifluoromethyl)benzoyl]-2-[1-[(2R)-2-hydroxypropyl]indazol-5-yl]-6-methyl-3-oxo-N-[[2-[1-(2,2,2-trifluoroethyl)pyrazol-3-yl]phenyl]methyl]-6,8-dihydro-5H-imidazo[1,5-a]pyrazine-1-carboxamide], under setting [1], the EC50 is 0.05 to 0.5 µM. For `CNc1ccnc(-c2ccccc2CNC(=O)c2c3n(c(=O)n2-c2ccc(OC4CC4)cc2)C[C@H](C)N(C(=O)c2ccc(Br)c(Cl)c2)C3)n1` (racemic) [Compound 26b], under setting [1], the EC50 was less than 0.05 µM. For the molecule `CNc1ccnc(-c2ccccc2CNC(=O)c2c3n(c(=O)n2-c2ccc(OC4CC4)cc2)CC(C)N(C(=O)c2ccc(Br)c(C(F)(F)F)c2)C3)n1` (racemic) [Compound 28a, rac-(6R)-7-[4-bromo-3-(trifluoromethyl)benzoyl]-2-[4-(cyclopropoxy)phenyl]-6-methyl-N-[[2-[4-(methylamino)pyrimidin-2-yl]phenyl]methyl]-3-oxo-6,8-dihydro-5H-imidazo[1,5-a]pyrazine-1-carboxamide], the 50% effective concentration (EC50) under setting [1] was less than 0.05 µM. For `C[C@@H]1Cn2c(c(C(=O)NCc3c(F)cccc3-c3ccccn3)n(-c3ccc(OC4CC4)cc3)c2=O)CN1C(=O)c1ccc(Br)c(C(F)(F)F)c1` (racemic) [Compound 41a, rac-(6R)-7-[4-bromo-3-(trifluoromethyl)benzoyl]-2-[4-(cyclopropoxy)phenyl]-N-[[2-fluoro-6-(2-pyridyl)phenyl]methyl]-6-methyl-3-oxo-6,8-dihydro-5H-imidazo[1,5-a]pyrazine-1-carboxamide], under setting [1], the EC50 was less than 0.05 µM.

On to `C[C@H]1Cn2c(c(C(=O)NCc3ccccc3-c3ccncn3)n(-c3ccc(OC[C@H](O)C(F)(F)F)cc3)c2=O)CN1C(=O)c1ccc(Br)c(C(F)(F)F)c1` (racemic) [Compound 63b, (6SR)-7-[4-bromo-3-(trifluoromethyl)benzoyl]-6-methyl-3-oxo-N-[(2-pyrimidin-4-ylphenyl)methyl]-2-[4-[(25)-3,3,3-trifluoro-2-hydroxy-propoxy]phenyl]-6,8-dihydro-5H-imidazo[1,5-a]pyrazine-1-carboxamide], for which the EC50 under setting [1] was in the range of 0.05 to 0.5 µM.

Turning to `C[C@H](O)COc1ccc(-n2c(C(=O)NCc3ccccc3-c3ncccn3)c3n(c2=O)C[C@H](C)N(C(=O)c2ccc(Br)c(C(F)(F)F)c2)C3)cc1` (racemic) [Compound 65b, (6SR)-7-[4-bromo-3-(trifluoromethyl)benzoyl]-2-[4-[(25)-2-hydroxypropoxy]phenyl]-6-methyl-3-oxo-N-[(2-pyrimidin-2-ylphenyl)methyl]-6,8-dihydro-5H-imidazo[1,5-a]pyrazine-1-carboxamide], the concentration for a half-maximal effect (EC50) under setting [1] is 0.05 to 0.5 µM. With `C[C@@H]1Cn2c(c(C(=O)NCc3ccccc3-c3ccncn3)n(-c3ccc(OCC4(O)CC4)cc3)c2=O)CN1C(=O)c1ccc(Br)c(C(F)(F)F)c1` (racemic) [Compound 74a, rac-(6R)-7-[4-bromo-3-(trifluoromethyl)benzoyl]-2-[4-[(1-hydroxycyclopropyl)methoxy]phenyl]-6-methyl-3-oxo-N-[(2-pyrimidin-4-ylphenyl)methyl]-6,8-dihydro-SH-imidazo[1,5-a]pyrazine-1-carboxamide], the EC50 under setting [1] is 0.05 to 0.5 µM. `C[C@H]1Cn2c(c(C(=O)NCc3ccccc3-c3ncccn3)n(-c3ccc(N4CC5(CN(C)C5)C4)cc3)c2=O)CN1C(=O)c1ccc(Br)c(C(F)(F)F)c1` (racemic) [Compound 78b, rac-(6S)-7-[4-bromo-3-(trifluoromethyl)benzoyl]-6-methyl-2-[4-(6-methyl-2,6-diazaspiro[3.3]heptan-2-yl)phenyl]-3-oxo-N-[(2-pyrimidin-2-ylphenyl)methyl]-6,8-dihydro-SH-imidazo[1,5-a]pyrazine-1-carboxamide]: the EC50 under setting [1] is 0.05 to 0.5 µM. Still for that read-out and setting: then `CN[C@H](C)COc1ccc(-n2c(C(=O)NCc3ccccc3-c3ncccn3)c3n(c2=O)C[C@H](C)N(C(=O)c2ccc(Br)c(C(F)(F)F)c2)C3)cc1` (racemic) [Compound 95b, rac-(6S)-7-[4-bromo-3-(trifluoromethyl)benzoyl]-6-methyl-2-[4-[2-(methylamino)propoxy]phenyl]-3-oxo-N-[(2-pyrimidin-2-ylphenyl)methyl]-6,8-dihydro-5H-imidazo[1,5-a]pyrazine-1-carboxamide], with 0.05 to 0.5 µM; and `C[C@H](COc1ccc(-n2c(C(=O)NCc3ccccc3-c3ncccn3)c3n(c2=O)C[C@H](C)N(C(=O)c2ccc(Br)c(C(F)(F)F)c2)C3)cc1)N1CCOCC1` (racemic) [Compound 96b, rac-(6S)-7-[4-bromo-3-(trifluoromethyl)benzoyl]-6-methyl-2-[4-(2-morpholinopropoxy)phenyl]-3-oxo-N-[(2-pyrimidin-2-ylphenyl)methyl]-6,8-dihydro-5H-imidazo[1,5-a]pyrazine-1-carboxamide], with less than 0.05 µM. Same read-out and setting: then `Cc1nnc(-c2ccccc2CNC(=O)c2c3n(c(=O)n2-c2ccc(OC4CC4)cc2)CC(C)N(C(=O)c2ccc(Br)c(Cl)c2)C3)o1` (single isomer, unassigned) [Compound 1a, (S*)-7-(4-bromo-3-chlorobenzoyl)-2-(4-cyclopropoxyphenyl)-6-methyl-N-(2-(5-methyl-1,3,4-oxadiazol-2-yl)benzyl)-3-oxo-2,3,5,6,7,8-hexahydroimidazo[1,5-a]pyrazine-1-carboxamide], with 0.05 to 0.5 µM. Consider `Cc1nnc(-c2ccccc2CNC(=O)c2c3n(c(=O)n2-c2ccc(OC4CC4)cc2)CC(C)N(C(=O)c2ccc(Br)c(Cl)c2)C3)o1` (single isomer, unassigned) [Compound 1b, (6R*)-7-(4-bromo-3-chlorobenzoyl)-2-(4-cyclopropoxyphenyl)-6-methyl-N-(2-(5-methyl-1,3,4-oxadiazol-2-yl)benzyl)-3-oxo-2,3,5,6,7,8-hexahydroimidazo[1,5-a]pyrazine-1-carboxamide], for which the 50% effective concentration (EC50) is less than 0.05 µM.

In the case of `CC1Cn2c(c(C(=O)NCc3c(F)cccc3-c3ccncn3)n(-c3ccc(OC4CC4)cc3)c2=O)CN1C(=O)c1ccc(Br)c(Cl)c1` (single isomer, unassigned) [Compound 2a, (S*)-7-(4-bromo-3-chlorobenzoyl)-2-(4-cyclopropoxyphenyl)-N-(2-fluoro-6-(pyrimidin-4-yl)benzyl)-6-methyl-3-oxo-2,3,5,6,7,8-hexahydroimidazo[1,5-a]pyrazine-1-carboxamide], the EC50 under setting [1] fell in the range of 0.05 to 0.5 µM.

As for `CC1Cn2c(c(C(=O)NCc3c(F)cccc3-c3ccncn3)n(-c3ccc(OC4CC4)cc3)c2=O)CN1C(=O)c1ccc(Br)c(Cl)c1` (single isomer, unassigned) [Compound 2b, (R*)-7-(4-bromo-3-chlorobenzoyl)-2-(4-cyclopropoxyphenyl)-N-(2-fluoro-6-(pyrimidin-4-yl)benzyl)-6-methyl-3-oxo-2,3,5,6,7,8-hexahydroimidazo[1,5-a]pyrazine-1-carboxamide], the EC50 was less than 0.05 µM.
